Legend:
[1] = system: pentylenetetrazol induced tonic convulsions; assay: Pentazol tonic conv. mice i.p. (Procedure 401); format: in vivo, mice (NMRI); settings: Mus musculus, ip, 0.5 h, i.p. 30 min before pentylenetetrazol 150 mg/kg s.c., tonic seizures, read-out: ED50 activity against pentazol induced convulsions, tonic
Procedure: III. Pentazol tonic conv. mice i.p. (Procedure 401)
(§1) Pentylenetetrazol induces clonic and tonic convulsions in mice at doses of 60-120 mg/kg s.c. The mechanism is unknown but seem to be due to some effects through the GABA receptor/benzodiazepine receptor/chloride ionophore complex. Antagonism of convulsions induced by maximal doses of pentylenetetrazol is considered predictive for drugs effective against petit mal epilepsia and anxiety.
150 mg/kg pentylenetetrazol (Pentazol, Sigma) dissolved in 0.9% NaCl is given by the subcutaneous route in volumes of 15 ml/kg to male or female NMRI mice weighing 20-25 g 30 min after an intraperitoneal injection of a test compound.
The ED50 value is calculated as the dose in μg/kg where seizures are inhibited in 50% of the animals using a computer program based on the method of Litchfield and Wilcoxon (1949).

[2] = system: benzodiazepine receptors; assay: In vivo inhibition of 3H-flunitrazepam binding to mouse forebrain membranes, test substances i.p. (Procedure 130); settings: 3H-flunitrazepam i.v., dose inhibiting 50% of specific forebrain binding
Procedure: I. In vivo inhibition of ^3 H-flunitrazepam binding to mouse forebrain membranes by test substances administered intraperitoneally. (Procedure 130)
Twenty minutes after a dose of ^3 H-flunitrazepam (^3 H-FNM) (200 μCi/kg, i.v.) the amount of specific ^3 H-FNM binding to brain benzodiazepine receptors has reached its maximal value.
Suspensions of test substances (2 mg/ml) are prepared in 5% Duphasol-X* by sonification for 10 min using a Branson B15 microtip ultrasonifier (setting 7). Groups of three mice (female, NMR, 18-22 gram) are injected with the test substance at 100 mg/kg intraperitoneally. Fifteen minutes after test substance administration the mice are challenged with 4 μCi intravenously of ^3 H-FNM (70-90 Ci/mole) in 200 μl physiological saline. Twenty minutes after ^3 H-FNM administration mice are sacrificed by decapitation, the forebrains rapidly excised (within 30 sec) and homogenized in 12 ml of icecold 25 mM KH2 PO4, pH 7.1, using an Ultra-Turrax homogenizer fitted with an N 10 shaft. Two aliquots of 1 ml are immediately filtered through Whatman GF/C glassfibre filters and washed with 2×5 ml of the above mentioned buffer. The amounts of radioactivity on the filters are determined by conventional scintillation counting. One group of untreated mice serves as controls. One to three mice are injected with 25 mg/kg clonazepam i.p. 30 minutes before ^3 H-FNM to determine the amount of non-specific ^3 H-FNM binding, which should be between 8-15% of total binding.
When doses of 100 mg/kg inhibit more than 50% of specific ^3 H-flunitrazepam binding; test substances are administered in doses, which are factors of 3.16 times lower than 100 mg/kg.
The ED50 for a test substance is defined as that dose which inhibits 50% of specific ^3 H-FNM binding. Specific binding is the amount of binding in controls minus the amount binding in clonazepam-treated mice.
The ED50 value is determined from dose response curves. If only one dose of test substance is administered the ED50 value is calculated as follows, provided that the inhibition of specific binding is within the range of 25-75%: [formula] where Co is specific binding in controls and Cx is specific binding in mice treated with test substance.

[3] = system: pentylenetetrazol induced clonic convulsions; assay: Pentazol clonic conv. mice (i.p.) (Procedure 400); format: in vivo, mice (NMRI); settings: Mus musculus, ip, 0.5 h, i.p. 30 min before pentylenetetrazol 150 mg/kg s.c., clonic seizures, read-out: ED50 activity against pentazol induced convulsions, clonic
Procedure: II. Pentazol clonic conv. mice (i.p.) (Procedure 400)
as §1, with “seems” for “seem”
150 mg/kg pentylenetetrazol dissolved in 0.9% NaCl is given by the subcutaneous route in volume of 15 ml/kg to male or female NMRI mice weighing 20-25 g 30 min after an intraperitoneal injection of a test compound.
The ED50 value is calculated as the dose in μg/kg at which seizures are inhibited in 50% of the animals using a computer program based on the method of Litchfield and Wilcoxon (1949).

Compound | ED50 [1] | ED50 binding in vivo [2] | ED50 [3]
CN1Cc2c(-c3noc(C4CC4)n3)ncn2-c2cccc(F)c2C1=O | 0.005 mg/kg | 0.09 mg/kg | 0.02 mg/kg
CN1Cc2c(-c3noc(C4CC4)n3)ncn2-c2cccc(C(F)(F)F)c2C1=O | 0.003 mg/kg | 0.01 mg/kg | 0.008 mg/kg
CC(C)c1noc(-c2ncn3c2CN(C)C(=O)c2c(Cl)cccc2-3)n1 | 0.2 mg/kg | 0.2 mg/kg | 0.6 mg/kg
CN1Cc2c(-c3nc(C4CC4)no3)ncn2-c2cccc(Cl)c2C1=O | 0.03 mg/kg | 0.06 mg/kg | 0.09 mg/kg
O=C1c2c(Cl)cccc2-n2cnc(-c3noc(C4CC4)n3)c2C2CCCN12 (stereo not drawn) |  | 0.96 mg/kg | 
O=C1c2c(Cl)cccc2-n2cnc(-c3nc(C4CC4)no3)c2C2CCCN12 (stereo not drawn) | 0.08 mg/kg | 0.23 mg/kg | 

From patent US4745112A, “Oxadiazolylimidazobenzodiazepine, compositions, and method III” (A/S Ferrosan, priority 1985, dated 1988)
